Results as given in US8163756B2 (priority 2004, dated 2012).
Structures can show the parent of a compound that is named as a salt. Where two headings read alike, the source gives them in different places.

What was measured:
[1] = biological target: B-Raf(V599E) kinase (Homo sapiens, UniProt P15056, V600E); experiment: B-Raf(V599E) kinase assay B1 (construct 1, MEK1 substrate, coupled spectrophotometric); type: biochemical
Procedure: The test compounds were incubated with the reaction mixtureat 30° C. for 2 h. […] The reaction rate was calculated using the […] time frame. […] IC50 values were calculated from a series of percent inhibition values determined at a range of inhibitor concentrations using software routines as implemented in the GraphPad Prism software package.

[2] = biological target: T1, Abl kinase (Homo sapiens, UniProt P00519); experiment: Abl kinase assay A2 (as A1, 1.1 nM enzyme, 2 h pre-incubation, 0.5 mM ATP); type: biochemical
T1 sequence (P00519 229-512): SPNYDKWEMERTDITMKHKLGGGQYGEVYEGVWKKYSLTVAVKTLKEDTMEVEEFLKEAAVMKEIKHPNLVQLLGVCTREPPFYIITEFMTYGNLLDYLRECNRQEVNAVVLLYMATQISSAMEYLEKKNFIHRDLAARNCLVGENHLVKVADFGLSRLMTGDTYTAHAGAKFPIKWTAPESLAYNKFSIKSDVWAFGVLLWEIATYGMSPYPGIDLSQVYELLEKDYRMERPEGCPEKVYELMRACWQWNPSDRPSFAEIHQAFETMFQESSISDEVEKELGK
Procedure: IC50 values were calculated from a series of percent inhibition values determined at a range of inhibitor concentrations using software routines as implemented in the GraphPad Prism software package.

[3] = Method A2, read-out: Abl Data (IC50)

Chain of B-Raf(V599E) kinase (P15056 with tags, fused parts or gaps V600E): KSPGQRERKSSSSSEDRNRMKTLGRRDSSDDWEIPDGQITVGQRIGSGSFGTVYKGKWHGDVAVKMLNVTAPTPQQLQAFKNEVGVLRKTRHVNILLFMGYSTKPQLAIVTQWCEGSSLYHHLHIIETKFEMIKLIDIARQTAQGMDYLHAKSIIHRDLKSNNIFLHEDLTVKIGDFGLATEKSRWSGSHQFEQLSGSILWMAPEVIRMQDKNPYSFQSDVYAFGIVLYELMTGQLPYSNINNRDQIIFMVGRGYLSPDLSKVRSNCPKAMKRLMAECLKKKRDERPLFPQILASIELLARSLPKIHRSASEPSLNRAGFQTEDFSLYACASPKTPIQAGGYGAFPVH

SMILES | IC50 [1] | IC50 [2, 3] | inhibition at 1 µM ([2]; @ 1 μM, Method A2, read-out: Abl Data (percent inhibition)) | IC50 [2]
CNC(=O)c1cc(Oc2ccc(NC(=O)Nc3cc(C(C)(C)C)nn3-c3ccc4nc(NCCN)ccc4c3)cc2)ccn1 [Example 172, 1-(1-(2-(2-aminoethylamino)quinolin-6-yl)-3-t-butyl-1H-pyrazol-5-yl)-3-(4-(2-(methylcarbamoyl)pyridin-4-yloxy)phenyl)urea] | 29 nM | 1.9 nM | – | –
Cn1c(=O)c(-c2cccc(NC(=O)Nc3cc(C(C)(C)C)nn3-c3ccc4c(c3)CCNC4)c2)cc2cncnc21 [Example 149, 1-(3-t-butyl-1-(1,2,3,4-tetrahydroisoquinolin-6-yl)-1H-pyrazol-5-yl)-3-(3-(8-methyl-7-oxo-7,8-dihydropyrido[2,3-d]pyrimidin-6-yl)phenyl)urea] | 9.3 nM | 1.2 nM | – | –
CC(C)(C)c1cc(NC(=O)Nc2ccc(-c3cccc4c3CNC4=O)cc2)n(-c2ccc3c(c2)CCN3)n1 [Example 191, 1-(3-t-butyl-1-(indolin-5-yl)-1H-pyrazol-5-yl)-3-(4-(1-oxoisoindolin-4-yl)phenyl)urea] | – | 21 nM | – | –
CC(C)(C)c1cc(NC(=O)Nc2cccc(-c3ccc(N)nc3)c2)n(-c2ccc3c(c2)CCC(=O)N3)n1 [Example 160, 1-(3-(6-aminopyridin-3-yl)phenyl)-3-(3-t-butyl-1-(2-oxo-1,2,3,4-tetrahydroquinolin-6-yl)-1H-pyrazol-5-yl)urea] | – | 14900 nM | – | –
Cc1ccc(NC(=O)Nc2cc(C(C)(C)C)nn2-c2cccc(CC(=O)NCC(O)CO)c2)cc1Nc1ncccn1 (centres unmarked) [Example 38, 1-(3-t-butyl-1-(3-(2-(2,3-dihydroxypropylamino)-2-oxoethyl)phenyl)-1H-pyrazol-5-yl)-3-(4-methyl-3-(pyrimidin-2-ylamino)phenyl)urea] | – | 1400 nM | – | –
CC(C)(C)c1cc(NC(=O)Nc2cccc(Oc3cncc(Cl)c3)c2)n(-c2ccc3c(c2)CCNC3)n1 [Example 150, 1-(3-t-butyl-1-(1,2,3,4-tetrahydroisoquinolin-6-yl)-1H-pyrazol-5-yl)-3-(3-(5-chloropyridin-3-yloxy)phenyl)urea] | 4.7 nM | 1.3 nM | – | –
CC(C)(C)c1cc(NC(=O)Nc2cccc(Oc3cccnc3)c2)n(-c2ccc3c(c2)CC(C(=O)NCC(O)CO)NC3)n1 (centres unmarked) [Example 182, 1-(1-(3-((2,3-dihydroxypropyl)carbamoyl)-1,2,3,4-tetrahydroisoquinolin-6-yl)-3-t-butyl-1H-pyrazol-5-yl)-3-(3-(pyridin-3-yloxy)phenyl)urea] | – | 3.4 nM | – | –
CC(C)(C)c1cc(NC(=O)Nc2cccc(-c3cccnc3)c2)n(-c2ccc3c(c2)CCC(=O)N3)n1 [Example 161, 1-(3-t-butyl-1-(2-oxo-1,2,3,4-tetrahydroquinolin-6-yl)-1H-pyrazol-5-yl)-3-(3-(pyridin-3-yl)phenyl)urea] | – | – | 3% | –
CC(C)(C)c1cc(NC(=O)Nc2cc(F)cc(F)c2F)n(-c2cc(CC(=O)NCC(O)CO)c3ccccc3c2)n1 (centres unmarked) [Example 95, 1-(3-t-butyl-1-(4-(2-(2,3-dihydroxypropyl-amino)-2-oxoethyl)naphthalen-2-yl)-1H-pyrazol-5-yl)-3-(2,3,5-trifluorophenyl)urea] | 2.9 nM | 56 nM | – | –
Cn1c(=O)c(-c2cccc(NC(=O)Nc3cc(C4CCCC4)nn3-c3ccc4[nH]c(=O)ccc4c3)c2)cc2cncnc21 [Example 162, 1-(3-cyclopentyl-1-(2-oxo-1,2-dihydroquinolin-6-yl)-1H-pyrazol-5-yl)-3-(3-(8-methyl-7-oxo-7,8-dihydropyrido[2,3-d]pyrimidin-6-yl)phenyl)urea] | 6.7 nM | 80 nM | – | –
CC(C)(C)c1cc(NC(=O)Nc2cc(F)cc(C#N)c2)n(-c2ccc3c(c2)CCNC3)n1 [Example 152, 1-(3-t-butyl-1-(1,2,3,4-tetrahydroisoquinolin-6-yl)-1H-pyrazol-5-yl)-3-(3-cyano-5-fluorophenyl)urea hydrochloride] | – | – | – | 570 nM
CC(C)(C)c1cc(NC(=O)Nc2cc(F)cc(F)c2F)n(-c2cc(CO)c3ccccc3c2)n1 [Example 65, 1-(3-t-butyl-1-(4-(hydroxymethyl)naphthalen-2-yl)-1H-pyrazol-5-yl)-3-(2,3,5-trifluorophenyl)urea] | 3 nM | 110 nM | – | –
CC(C)(C)c1cc(NC(=O)Nc2cccc(Cl)c2Cl)n(-c2ccc3nc(N4CCNCC4)ccc3c2)n1 [Example 168, 1-(3-t-butyl-1-(2-(piperazin-1-yl)quinolin-6-yl)-1H-pyrazol-5-yl)-3-(2,3-dichlorophenyl)urea] | 30 nM | 1100 nM | – | –
O=C1CCc2cc(-n3nc(C4CCCC4)cc3NC(=O)Nc3cccc(Oc4cccnc4)c3)ccc2N1 [Example 133, 1-(3-cyclopentyl-1-(2-oxo-1,2,3,4-tetrahydroquinolin-6-yl)-1H-pyrazol-5-yl)-3-(3-(pyridin-3-yloxy)phenyl)urea] | – | 48 nM | – | –
CNC(=O)c1cc(Oc2ccc(NC(=O)Nc3cc(C(C)(C)C)nn3-c3ccc4nc(N5CCNCC5)ccc4c3)cc2)ccn1 [Example 170, 1-(3-t-butyl-1-(2-(piperazin-1-yl)quinolin-6-yl)-1H-pyrazol-5-yl)-3-(4-(2-(methylcarbamoyl)pyridin-4-yloxy)phenyl)urea] | 40 nM | 1.8 nM | – | –
CC(C)(C)c1cc(NC(=O)Nc2ccc(-c3cccc4c3CNC4=O)cc2)n(-c2ccc3c(c2)CCN3S(C)(=O)=O)n1 [Example 192, 1-(3-t-butyl-1-(1-(methylsulfonyl)indolin-5-yl)-1H-pyrazol-5-yl)-3-(4-(1-oxoisoindolin-4-yl)phenyl)urea] | – | 27 nM | – | –
CC(C)(C)c1cc(NC(=O)Nc2ccc(-c3cccc4c3CNC4=O)cc2)n(-c2ccc3c(c2)CC(C(=O)O)NC3)n1 (centres unmarked) [Example 181, 6-(3-t-butyl-5-(3-(4-(1-oxoisoindolin-4-yl)phenyl)ureido)-1H-pyrazol-1-yl)-1,2,3,4-tetrahydroisoquinoline-3-carboxylic acid] | – | 6.6 nM | – | –
CC(C)(C)c1cc(NC(=O)Nc2cccc(Cl)c2Cl)n(-c2ccc3c(=O)[nH]cnc3c2)n1 [Example 194, 1-(3-t-butyl-1-(4-oxo-3,4-dihydroquinazolin-7-yl)-1H-pyrazol-5-yl)-3-(2,3-dichlorophenyl)urea] | – | 540 nM | – | –
CC(C)(C)c1cc(NC(=O)Nc2cccc(C#N)c2)n(-c2ccc3c(c2)CCNC3)n1 [Example 139, 1-(3-t-butyl-1-(1,2,3,4-tetrahydro-isoquinolin-6-yl)-1H-pyrazol-5-yl)-3-(3-cyanophenyl)urea] | – | 140 nM | – | –
CC(C)(C)c1cc(NC(=O)Nc2ccc(-c3cccc4c3CNC4=O)cc2)n(-c2ccc3c(c2)CC(C(N)=O)NC3)n1 (centres unmarked) [Example 183, 1-(3-t-butyl-1-(3-carbamoyl-1,2,3,4-tetrahydroisoquinolin-6-yl)-1H-pyrazol-5-yl)-3-(4-(1-oxoisoindolin-4-yl)phenyl)urea] | – | 20 nM | – | –
CNC(=O)c1cc(Oc2ccc(NC(=O)Nc3cc(C(C)(C)C)nn3-c3ccc4c(c3)CCNC4)cc2)ccn1 [Example 148, 1-(3-t-butyl-1-(1,2,3,4-tetrahydroisoquinolin-6-yl)-1H-pyrazol-5-yl)-3-(4-(2-(methylcarbamoyl)pyridin-4-yloxy)phenyl)urea] | 31 nM | 1.2 nM | – | –
CC(C)(C)c1cc(NC(=O)Nc2cc(F)c(F)cc2F)n(-c2cc(CC(N)=O)c3ccccc3c2)n1 [Example 81, 1-(1-(4-(2-amino-2-oxoethyl)naphthalen-2-yl)-3-t-butyl-1H-pyrazol-5-yl)-3-(2,4,5-trifluorophenyl)urea] | 4.1 nM | 120 nM | – | –
